Assays:
estrogen receptor = assay: Scatchard analysis of ligand binding affinity on receptor-programmed reticulocyte lysate; conditions: Scatchard analysis at receptor dilutions giving signal:noise ~10
Description: The volume of receptor-programmed reticulocyte lysate to be added to the binding assay can be determined independently from two measurements made on each batch of receptor prepared. First, Kis are determined for standard compounds using a series of dilutions of the receptor preparation. Scatchard analysis of ligand binding affinity is performed at the receptor dilutions that produced reported Kis for these compounds and an acceptable signal:noise ratio (˜10).

[1] = humans, single agent therapy, circulating in the blood; Blackledge et al, Urology 1996; cited from earlier work

Compound	Kd (estrogen receptor) [nM]	basal level of total testosterone [1]
CC12CCC3c4ccc(O)cc4CCC3C1CC([125I])C2O (stereo not drawn) [[^125I]-estradiol, [^125I]-16α-iodo-3,17β-estradiol]	0.1 to 1	–
CC(O)(CS(=O)(=O)c1ccc(F)cc1)C(=O)Nc1ccc(C#N)c(C(F)(F)F)c1 (stereo not drawn) [bicalutamide, 4′-cyano-α′,α′,α′-trifluoro-3-(4-fluorophenylsulphonyl)-2-hydroxy-2-methylpropiono-m-toluidide]	–	approximate doubling

From patent US20040204390A1, “Pharmaceutical combination comprising an anti-androgen and an oestrogen receptor beta agonist” (priority 2001, published 2004)
